Literature values, collected in patent US6436435B1, “Liposome formulation of 5 β steroids” (Super Gen, Inc., priority 1995, dated 2002).

Key:
[1] = test system: diabetic genetically obese mice; conditions: supplied in the diet
obese mice = conditions: injected im, ip or iv / parenteral
[2] = test system: C57BL/KsJ-db/db diabetic mice; conditions: for effectiveness in preventing development of diabetes relative to DHEA: C57BL/KsJ-db/db diabetic mice; for blood sugar / plasma insulin concentrations: mouse, in vivo
[3] = test system: severely diabetic mammals; conditions: oral administration
genetically obese mice = conditions: variety of routes
[4] = test system: genetically obese and diabetic mice; conditions: maximal benefit when ingested
[5] = test system: individuals suffering from Prader-Willi Syndrome; conditions: in vivo
[6] = test system: congenitally obese mice carrying the ob ob mutation

Molecule: C[C@]12CC[C@@H](O)C[C@H]1CC[C@@H]1[C@@H]2CC[C@]2(C)C(=O)CC[C@@H]12 [α ET, 3α-hydroxy-5β-androstane-17-one]
- anti-obesity properties [1]: can prevent and arrest the development of obesity
- anti-obesity effect, injected (obese mice): does not exert an anti-obesity effect
- effectiveness in preventing development of diabetes relative to DHEA [2]: four times more effective than DHEA
- blood sugar [2]: reduce blood sugar
- plasma insulin concentrations [2]: increased plasma insulin concentrations

Molecule: C[C@]12CC[C@H](O)C[C@H]1CC[C@@H]1[C@@H]2CC[C@]2(C)C(=O)CC[C@@H]12 [β ET, 3β-hydroxy-5β-androstane-17-one]
- anti-obesity properties [1]: can prevent and arrest the development of obesity
- anti-obesity effect, injected (obese mice): does not exert an anti-obesity effect
- effectiveness in preventing development of diabetes relative to DHEA [2]: four times more effective than DHEA
- blood sugar [2]: reduce blood sugar
- plasma insulin concentrations [2]: increased plasma insulin concentrations

Molecule: C[C@]12CC[C@H](O)CC1=CC[C@@H]1[C@@H]2CC[C@]2(C)C(=O)CC[C@@H]12 [DHEA, 3-β-hydroxy-androst-5-en-17-one]
- glucose tolerance [3]: improved glucose tolerance
- hyperglycemia [3]: restored hyperglycemia to normal levels
- rate of weight gain (genetically obese mice): decreased the rate of weight gain
- development of diabetes [4]: markedly reduced the development of diabetes

Molecule: C[C@]12CC[C@@H](O)C[C@H]1CC[C@@H]1[C@@H]2CC[C@]2(C)C(=O)CC[C@@H]12 [etiocholanolone]
- body weight in Prader-Willi Syndrome [5]: either weight loss or a decrease in the rate of weight gain

Molecule: C[C@]12CCC(=O)C[C@H]1CC[C@@H]1[C@@H]2CC[C@]2(C)C(=O)CC[C@@H]12 [ED, 5β-androstane-3,17-dione]
- subjective or objective side effects (oral ED four grams per day): no significant subjective or objective side effects
- weight loss per week per 100 kilograms of body fat (oral ED four grams per day): 0.5±0.91 kilograms per week per 100 kilograms of body fat
- mean weight loss during ED administration (oral ED four grams per day, 10 week period, 14 obese subjects): 2.8±5.5 kilograms
- mean fat loss, of the initial body fat content (over the 10 week period of ED administration): about 5%
- body weight in Prader-Willi Syndrome [5]: either weight loss or a decrease in the rate of weight gain

Molecule: C[C@]12CC[C@H](O)C[C@@H]1CC[C@@H]1[C@@H]2CC[C@]2(C)C(=O)CC[C@@H]12 [epiandrosterone]
- effectiveness in preventing development of diabetes relative to DHEA [2]: not

Molecule: C[C@]12CC[C@@H](O)C[C@@H]1CC[C@@H]1[C@@H]2CC[C@]2(C)C(=O)CC[C@@H]12 [androsterone]
- effectiveness in preventing development of diabetes relative to DHEA [2]: not

B1: OB protein: protein product of the recombinant gene ob in mice and its human homologue (protein, UniProt P41160 22-167, looked up)
Leptin: VPIQKVQDDTKTLIKTIVTRINDISHTQSVSAKQRVTGLDFIPGLHPILSLSKMDQTLAVYQQVLTSLPSQNVLQIANDLENLRDLLHLLAFSKSCSLPQTSGLQKPESLDGVLEASLYSTEVVALSRLQGSLQDILQQLDVSPEC
- serum insulin and glucose levels ([6]; highest dose tested, 10 mg/kg per day): normalized to the level typically seen in the non-mutant mice
- body weight effect ([6]; parenteral administration): weight reducing effects
